According to patent US5635527A, “Carboxylic acid compound having condensed ring, salt thereof and pharmaceutical use thereof” (The Green Cross Corporation, priority 1994, dated 1997):

Each compound was assayed on human platelets (assay: suppressive activity on ADP aggregation of human platelets). Settings: platelet rich plasma, ADP 1-5 μM, compound added 2 minutes before ADP, read-out: Suppression of platelet aggregation (IC50).
Type: cell-based
Experimental: Determination of suppressive activity on ADP aggregation of human platelets
Platelet rich plasma was prepared from the blood taken from healthy humans by centrifugation in the presence of 0.38% sodium citrate, and used for the determination.
Two minutes after the test compounds shown in Table 1 were added to the above-mentioned platelet rich plasma, ADP (adenosine-5'-diphosphate) (1-5 μM) having a concentration at which primary aggregation alone is observed was added, and the suppression of ADP aggregation by the compounds was evaluated. The percent suppression was determined by varying the concentration of the compounds and the concentration of the compound at which the aggregation was suppressed by 50% (IC50) was calculated, which was taken as the activity of the compound.

SMILES | IC50 [nM]
N=C(NCc1ccccc1)c1ccc2oc(C(=O)Nc3ccc(OCC(=O)O)cc3)cc2c1 [Compound 5, 4-[(5-Benzylamidino-2-benzofuranyl)carbonylamino]phenoxy-acetic acid] | 100
N=C(N)c1ccc2oc(C(=O)Nc3ccc(OCC(=O)O)cc3)cc2c1 [Compound 10, 4-[(5-Amidino-2-benzofuranyl)carbonylamino]phenoxyacetic acid] | 30
N=C(N)c1ccc2cc(C(=O)Nc3ccc(OCC(=O)O)cc3)oc2c1 [Compound 12, 4-[(6-Amidino-2-benzofuranyl)carbonylamino]phenoxyacetic acid] | 230
Cc1c(C(=O)Nc2ccc(OCC(=O)O)cc2)oc2ccc(C(=N)N)cc12 [Compound 16, 4-[(5-Amidino-3-methyl-2-benzofuranyl)carbonylamino]phenoxyacetic acid] | 40
CN(C(=O)c1cc2cc(C(=N)N)ccc2o1)c1ccc(OCC(=O)O)cc1 [Compound 21, 4-[(5-Amidino-2-benzofuranyl)carbonyl-N-methylamino]phenoxyacetic acid] | 100
N=C(N)c1ccc2oc(C(=O)Nc3ccc(OCC(=O)O)c(OCC(=O)O)c3)cc2c1 [Compound 29, [[4-[(5-Amidino-2-benzofuranyl)carbonylamino]-o-phenylene]dioxy]diacetic acid] | 30
COC(=O)CCc1ccc(NC(=O)c2cc3cc(C(=N)N)ccc3o2)cc1 [Compound 35, Methyl 3-[4-[(5-amidino-2-benzofuranyl)carbonylamino]phenyl]propionate] | 500
N=C(N)c1ccc2oc(C(=O)Nc3ccc(CCC(=O)O)cc3)cc2c1 [Compound 37, 3-[4-[(5-Amidino-2-benzofuranyl)carbonylamino]phenyl]propionate] | 40
N=C(N)c1ccc2oc(C(=O)Nc3ccc(C[C@H](N)C(=O)O)cc3)cc2c1 [Compound 46, (S)-3-[4 [(5-Amidino-2-benzofuranyl)carbonylamino]phenyl]-2-aminopropionic acid] | 60
CCCCS(=O)(=O)NC(Cc1ccc(NC(=O)c2cc3cc(C(=N)N)ccc3o2)cc1)C(=O)O (stereo not shown) [Compound 48, 3-[4-[(5-Amidino-2-benzofuranyl)carbonylamino]phenyl]-2-(n-butylsulfonylamino)propionic acid] | 10
N=C(N)c1ccc2oc(C(=O)Nc3ccc(C[C@H](NS(=O)(=O)C(F)(F)F)C(=O)O)cc3)cc2c1 [Compound 55, (S)-3-[4-[(5-Amidino-2-benzofuranyl)carbonylamino]phenyl]-2-(trifluoromethylsulfonylamino)propionic acid] | 70
N=C(N)c1ccc2oc(C(=O)Nc3ccc(C[C@H](NC(=O)COC4CCNCC4)C(=O)O)cc3)cc2c1 [Compound 56, (S)-3-[4-[(5-Amidino-2-benzofuranyl)carbonylamino]phenyl]2-[(4-piperidinyloxy)acetylamino]propionic acid] | 30
COc1ccc(CCC(=O)N[C@@H](Cc2ccc(NC(=O)c3cc4cc(C(=N)N)ccc4o3)cc2)C(=O)O)cc1 [Compound 61, (S)-3-[4-[(5-Amidino-2-benzofuranyl)carbonylamino]phenyl]-2-[3-(4-methoxyphenyl)propionylamino]propionic acid] | 30
N=C(N)c1ccc2oc(C(=O)Nc3ccc(NCC(=O)O)cc3)cc2c1 [Compound 70, [4-[(5-Amidino-2-benzofuranyl)carbonylamino]anilino]acetic acid] | 150
CCCCC(=O)N(CC(=O)O)c1ccc(NC(=O)c2cc3cc(C(=N)N)ccc3o2)cc1 [Compound 74, [4-[(5-Amidino-2-benzofuranyl)carbonylamino]-N-(n-valeryl)anilino]acetic acid] | 230
N=C(N)c1ccc2cc(C(=O)Nc3ccc(OCC(=O)O)cc3)[nH]c2c1 [Compound 95, 4-[(6-Amidino-2-indolyl)carbonylamino]phenoxyacetic acid] | 60
Cn1c(C(=O)Nc2ccc(OCC(=O)O)cc2)cc2ccc(C(=N)N)cc21 [Compound 118, 4-[(6-Amidino-1-methyl-2-indolyl)carbonylamino]phenoxyacetic acid] | 200
N=C(N)c1ccc2sc(C(=O)Nc3ccc(OCC(=O)O)cc3)cc2c1 [Compound 134, 4-[(5-Amidinobenzo[b]thien-2-yl)carbonylamino]phenoxyacetic acid] | 700
N=C(N)c1ccc2cc(C(=O)Nc3ccc(OCC(=O)O)cc3)sc2c1 [Compound 135, 4-[(6-Amidinobenzo[b]thien-2-yl)carbonylamino]phenoxyacetic acid] | 20
N=C(N)c1ccc2oc(C(=O)OC3CCC(OCC(=O)O)CC3)cc2c1 (stereo not shown) [Compound 152, [4-[(5-Amidino-2-benzofuranyl)carbonyloxy]cyclohexyloxy]acetic acid] | 80
CCOC(=O)CC[C@H]1CC[C@H](NC(=O)c2cc3cc(C(=N)N)ccc3o2)CC1 [Compound 159] | 70
N=C(N)c1ccc2oc(C(=O)N[C@H]3CC[C@H](CCC(=O)OCCO)CC3)cc2c1 [Compound 163, 2-Hydroxyethyl trans-3-[4-[(5-amidino-2-benzofuranyl)carbonylamino]cyclohexyl]propionate] | 450
N=C(N)c1ccc2oc(C(=O)N[C@H]3CC[C@H](OCC(=O)OCCO)CC3)cc2c1 [Compound 164, 2-Hydroxyethyl trans-[4-[(5-amidino-2-benzofuranyl)carbonylamino]cyclohexyloxy]acetate] | 180
N=C(N)c1ccc2oc(C(=O)NC3CCC(CCC(=O)O)CC3)cc2c1 (stereo not shown) [Compound 165, 3-[4-[(5-Amidino-2-benzofuranyl)carbonylamino]cyclohexyl]propionic acid] | 10
N=C(N)c1ccc2oc(C(=O)N[C@H]3CC[C@H](CCC(=O)O)CC3)cc2c1 [Compound 167, trans-3-[4-[(5-amidino-2-benzofuranyl)carbonylamino]cyclohexyl]propionic acid] | 6
N=C(N)c1ccc2oc(C(=O)N[C@H]3CC[C@H](OCC(=O)O)CC3)cc2c1 [Compound 179, trans-[4-[(5-Amidino-2-benzofuranyl)carbonylamino]cyclohexyloxy]acetic acid] | 10
Cc1c(C(=O)N[C@H]2CC[C@H](OCC(=O)O)CC2)oc2ccc(C(=N)N)cc12 [Compound 182, trans-[4-[(5-Amidino-3-methyl-2-benzofuranyl)carbonylamino]cyclohexyloxy]acetic acid] | 30

Next, values leading:

IC50 [nM] | SMILES
150 | COc1c(C(=O)N[C@H]2CC[C@H](OCC(=O)O)CC2)oc2ccc(C(=N)N)cc12 [Compound 184, trans-[4-[(5-Amidino-3-methoxy-2-benzofuranyl)carbonyl-amino]cyclohexyloxy]acetic acid]
160 | CCOC(=O)CCN1CCC(NC(=O)c2cc3cc(C(=N)N)ccc3o2)CC1 [Compound 191, Ethyl 3-[4-[(5-amidino-2-benzofuranyl)carbonylamino]-piperidino]propionate]
20 | N=C(N)c1ccc2oc(C(=O)NC3CCN(CCC(=O)O)CC3)cc2c1 [Compound 192, 3-[4-[(5-amidino-2-benzofuranyl)carbonylamino]piperidino]propionic acid]
320 | CCOC(=O)CCN1CCC(OC(=O)c2cc3cc(C(=N)N)ccc3o2)CC1 [Compound 193, Ethyl 3-[4-[(5-amidino-2-benzofuranyl)carbonyloxy]piperidino]propionate]
20 | N=C(N)c1ccc2oc(C(=O)N[C@H]3CC[C@H](NCC(=O)O)CC3)cc2c1 [Compound 195, trans-[4-[(5-Amidino-2-benzofuranyl)carbonylamino]cyclohexylamino]acetic acid]
230 | CCOC(=O)CN(CC(=O)OCC)[C@H]1CC[C@H](NC(=O)c2cc3cc(C(=N)N)ccc3o2)CC1 [Compound 202, Diethyl trans-[4-[(5-amidino-2-benzofuranyl)carbonylamino]cyclohexylamino]diacetate]
1750 | CC(C)(C)OC(=O)CN(CC(=O)OC(C)(C)C)[C@H]1CC[C@H](NC(=O)c2cc3cc(C(=N)N)ccc3o2)CC1 [Compound 203, di-t-butyl trans-[4-[(5-amidino-2-benzofuranyl)-carbonylamino]cyclohexylamino]diacetate]
9 | N=C(N)c1ccc2oc(C(=O)N[C@H]3CC[C@H](N(CC(=O)O)CC(=O)O)CC3)cc2c1 [Compound 204, trans-[4-[(5-Amidino-2-benzofuranyl)carbonylamino]cyclohexylamino]diacetic acid]
100 | CCOC(=O)CO[C@H]1CC[C@H](NC(=O)c2cc3ccc(C(=N)N)cc3[nH]2)CC1 [Compound 209, Ethyl trans-[4-[(6-Amidino-2-indolyl)carbonylamino]cyclohexyloxy]acetate]
30 | N=C(N)c1ccc2cc(C(=O)N[C@H]3CC[C@H](OCC(=O)O)CC3)[nH]c2c1 [Compound 212, trans-[4-[(6-Amidino-2-indolyl)carbonylamino]cyclohexyloxy]acetic acid]
20 | N=C(N)c1ccc2cc(C(=O)N[C@H]3CC[C@H](OCC(=O)O)CC3)sc2c1 [Compound 232, trans-[4-[(6-Amidinobenzo[b]thien-2-yl)carbonylamino]cyclohexyloxy]acetic acid]
10 | N=C(N)c1cnc2oc(C(=O)Nc3ccc(OCC(=O)O)cc3)cc2c1 [Compound 239, 4-(5-Amidinofuro[2,3-b]pyridine-2-carbonylamino)-phenoxyacetic acid]
30 | N=C(N)c1cnc2oc(C(=O)Nc3ccc(OCC(=O)O)nc3)cc2c1 [Compound 246, 5-(5-Amidinofuro[2,3-b]pyridine-2-carbonylamino)-2-pyridyloxyacetic acid]
